Test results reported in patent publication US20040224884A1, “Methods of screening for apoptosis-controlling agents for bone anabolic therapies and uses thereof” (priority 1998, published 2004).
Several values for one entry are separate records, joined by “and”; a condition that tells them apart may be missing. Equal entries are not always repeated.

Legend:
MLO-Y4 osteocytic cells = test: Etoposide-induced apoptosis of MLO-Y4 osteocytic cells, trypan blue uptake; format: cell-based, murine
Experimental: Cells were pretreated with the indicated concentrations of the compounds for 1 hour before the addition of the pro-apoptotic agent etoposide. Apoptosis was determined after 6 hour by trypan blue uptake as described in FIG. 3. * indicates p<0.05 versus etoposide alone, by ANOVA (Student-Newman-Keuls method).
MLO-Y4 cells were pretreated for 1 hour with the pure receptor antagonist ICI182,780 (10^−7 M) before the addition of the test agents (10^−8 M). Apoptosis was induced and quantified as described in FIG. 3. * indicates p<0.05 versus etoposide alone, by ANOVA (Student-Newman-Keuls method).
In this experiment, MLO-Y4 cells were pretreated with the indicated concentrations of the various compounds for 1 h before the addition of the pro-apoptotic agent, etoposide. Apoptosis was determined after 6 h by trypan blue uptake as described in FIG. 3.

[1] = BMD by dual-energy x-ray absorptiometry in intact or ovariectomized mice; format: in vivo; design: global 1 BMD / hindquart BMD (1) / spine 1 BMD / global 2 BMD / hindquart BMD (2) / spine 2 BMD / global 1 BMD (mean) / hindquart BMD (1) (mean) / spine 1 BMD (mean) / global 2 BMD (mean) / hindquart BMD (2) (mean) / spine 2 BMD (mean): unit not given here; conditions: for Global BMD: 2000 ng/g body weight for 28 days; for global 2 BMD / hindquart BMD (2) / spine 2 BMD / global 2 BMD (mean) / hindquart BMD (2) (mean) / spine 2 BMD (mean): 2000 ng/g for 28 days, end of experiment; for global 2 BMD / hindquart BMD (2) / spine 2 BMD / global 1 BMD / hindquart BMD (1) / spine 1 BMD: individual animals; for global 1 BMD / hindquart BMD (1) / spine 1 BMD / global 1 BMD (mean) / hindquart BMD (1) (mean) / spine 1 BMD (mean): 2000 ng/g group, day 0 (initial)
Experimental: In a representative experiment of this sort, six 4-5 month old female mice per group are screened twice for BMD in a four week period immediately prior to the initiation of the experiment to establish that peak adult bone mass has been attained. A subset of mice are then ovariectomized. Intact and ovariectomized mice are treated with vehicle, or 20, 200 or 2000 ng/g body weight estratriene-3-ol or another test compound.
Stock solutions of the test agents (10,000 μg/ml) are maintained in approximately 2.0 ml of 95% ethanol. These stocks are diluted in 95% ethanol to make 1000 μg/ml and 100 μg/ml concentrations. The concentration of the stocks is checked spectrophotometrically. For each animal injection, the test agent is diluted in sesame oil and sonicated. Test agents are administered for 28 days by subcutaneous injections on alternative days. The mice are weighed weekly and serum samples are collected at appropriate times for analysis of bone biochemical markers, such as osteocalcin or collagen cross-links. Tetracycline labeling is performed by administration of the antibiotic (30 mg/kg) at 2 and 8 days prior to the end of each experiment.
During the 28 day experiment, BMD is determined in live animals at day 0, 14 and 28. Following animal sacrifice at the end of the experiment, the vertebral bones L1-L4 are collected for fixation and embedded undecalcified in methyimethacrylate plastic for the determination of the prevalence of osteoblast and osteocyte apoptosis and other static and dynamic histomorphometric measurements. L5 vertebrae are isolated for determining anti-fracture efficacy of the compounds by assaying compression, 3 point bending and other appropriate biomechanical tests. Results confirming the expected efficacy of these compounds show decreased prevalence of osteoblast and/or osteocyte apoptosis, and/or positive BMD changes, and/or increased cancellous bone area, and/or increased rate of bone formation, and/or increased biomechanical strength.
As an example, the results of an experiment whereby 2000 ng/g body weight of estratriene-3-ol was administered for 28 days to estrogen-replete (intact) or estrogen-deficient (ovariectomized) mice are shown in Table 2.
Each row represents values for individual animals. The first three sets of numbers represent the initial BMD measurements (by dual-energy x-ray absorptiometry with Hologic QDR2000 plus, using customized software) at day 0 and the last three BMD measurements at the end of the experiment. Global=BMD of the entire skeleton minus the head and tail; hindquarters=the mean BMD of both hindlimbs; spine=the BMD of cervical, thoracic and lumbar spine.

human ERα = molecular target: T1, human ERα (Homo sapiens, UniProt P03372); test: ERE-luciferase reporter in 293 cells overexpressing hERα; format: cell-based; conditions: 3 copies of ERE driving luciferase
T1 construct: expressed in transfected cells; host or cells: 293 human embryonic kidney cells
T1 sequence (P03372 1-595): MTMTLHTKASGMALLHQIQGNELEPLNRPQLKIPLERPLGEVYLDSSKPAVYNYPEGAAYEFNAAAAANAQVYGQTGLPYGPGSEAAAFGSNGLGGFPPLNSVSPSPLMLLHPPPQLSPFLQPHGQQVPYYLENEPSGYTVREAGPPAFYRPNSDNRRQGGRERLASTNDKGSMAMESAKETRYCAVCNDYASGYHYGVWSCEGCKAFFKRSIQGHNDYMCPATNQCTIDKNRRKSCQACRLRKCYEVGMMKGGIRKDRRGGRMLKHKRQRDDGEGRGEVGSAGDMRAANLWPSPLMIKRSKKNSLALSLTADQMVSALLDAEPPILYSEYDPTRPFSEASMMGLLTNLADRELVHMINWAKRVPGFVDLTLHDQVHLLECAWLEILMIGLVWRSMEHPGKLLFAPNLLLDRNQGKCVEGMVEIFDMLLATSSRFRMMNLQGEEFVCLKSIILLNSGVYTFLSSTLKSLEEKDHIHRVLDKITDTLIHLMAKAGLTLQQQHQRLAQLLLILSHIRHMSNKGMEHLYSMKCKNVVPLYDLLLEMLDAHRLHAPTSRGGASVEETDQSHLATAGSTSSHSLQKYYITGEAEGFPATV
Source text: The human ERα was overexpressed in 293 cells lacking ERα along with a reporter construct containing 3 copies of a n estrogen response element driving the luciferase gene. Light units were counted and normalized to coexpressed b-galactosidase activity to control for differences in transfection efficiency. Results represent percent stimulation compared to ERα transfected cells, but not treated with the two agents. Each bar represents mean of duplicate experiments +/−SEM. *p<0.001 vs. cells not exposed to the sterols.
In this experiment, hERα was overexpressed in 293 cells (which lack constitutive ERα) along with a reporter construct containing 3 copies of an estrogen response element driving the luciferase gene. Light units were counted and normalized to coexpressed β-galactosidase activity to control for differences in transfection efficiency.

## C[C@@]12CCC[C@H]1[C@@H]1CCc3cc(O)ccc3[C@H]1CC2 [estratriene-3-ol]
MLO-Y4 osteocytic cells; ICI182,780 10^−7 M, 1 h pretreatment
  antiapoptotic effect on osteocytes after pretreatment with ICI182,780: abrogated
MLO-Y4 osteocytic cells; MLO-Y4, pretreated 1 h before etoposide, apoptosis after 6 h
  inhibition of etoposide-induced apoptosis of osteocytic cell line: dose-dependently inhibited
[1]; Ovx mice, p < 0.00001
  Global BMD: 0.0555 ± 0.0011 g/cm2
[1]; Ovx mice
  global 2 BMD: 0.0565 and 0.0557 and 0.0548 and 0.0545 and 0.0564 and 0.0568 and 0.0550 and 0.0539
  hindquart BMD (2): 0.0602 and 0.0632 and 0.0599 (2×) and 0.0624 and 0.0598 and 0.0647 and 0.0630
  spine 2 BMD: 0.0608 and 0.0585 and 0.0584 and 0.0598 and 0.0610 and 0.0625 and 0.0578 and 0.0605
  global 2 BMD (mean): 0.0555
  hindquart BMD (2) (mean): 0.0618
  spine 2 BMD (mean): 0.0599
  global 1 BMD: 0.0505 and 0.0542 and 0.0496 and 0.0540 and 0.0526 and 0.0569 and 0.0565 and 0.0528
  hindquart BMD (1): 0.0527 and 0.0588 and 0.0504 and 0.0596 and 0.0547 and 0.0604 and 0.0591 and 0.0582
  spine 1 BMD: 0.0547 and 0.0581 and 0.0542 and 0.0586 and 0.0580 and 0.0628 and 0.0603 and 0.0568
  global 1 BMD (mean): 0.0534
  hindquart BMD (1) (mean): 0.0573
  spine 1 BMD (mean): 0.0579
[1]; intact mice, p < 0.002
  Global BMD: 0.0554 ± 0.0015 g/cm2
[1]; intact mice
  global 2 BMD: 0.0550 and 0.0543 and 0.0541 and 0.0568 (2×) and 0.0537 and 0.0574
  hindquart BMD (2): 0.0585 and 0.0603 and 0.0619 and 0.0629 and 0.0640 and 0.0554 and 0.0605
  spine 2 BMD: 0.0602 and 0.0604 and 0.0601 and 0.0613 and 0.0620 and 0.0588 and 0.0632
  global 2 BMD (mean): 0.0554
  hindquart BMD (2) (mean): 0.0605
  spine 2 BMD (mean): 0.0609
  global 1 BMD: 0.0486 and 0.0511 and 0.0543 and 0.0537 and 0.0533 and 0.0521 and 0.0560
  hindquart BMD (1): 0.0509 and 0.0565 and 0.0605 and 0.0577 and 0.0546 and 0.0544 and 0.0587
  spine 1 BMD: 0.0511 and 0.0560 and 0.0593 and 0.0584 and 0.0571 and 0.0555 and 0.0623
  global 1 BMD (mean): 0.0527
  hindquart BMD (1) (mean): 0.0562
  spine 1 BMD (mean): 0.0571
Human ERα
  transactivation of an estrogen response element through estrogen receptor α: did not transactivate
